Tests used:
D. melanogaster VAChT [1] = molecular target: T1, D. melanogaster VAChT (Drosophila melanogaster, UniProt O17444); assay: displacement of [3H]-SYN876 from membranes of PC12 cells expressing VAChT; format: binding; settings: competition with [3H]-SYN876
T1 construct: full-length gene cloned by PCR from adult fly cDNA library, Gateway vector, expressed in PC12 cells (rat)
T1 sequence (O17444 1-578): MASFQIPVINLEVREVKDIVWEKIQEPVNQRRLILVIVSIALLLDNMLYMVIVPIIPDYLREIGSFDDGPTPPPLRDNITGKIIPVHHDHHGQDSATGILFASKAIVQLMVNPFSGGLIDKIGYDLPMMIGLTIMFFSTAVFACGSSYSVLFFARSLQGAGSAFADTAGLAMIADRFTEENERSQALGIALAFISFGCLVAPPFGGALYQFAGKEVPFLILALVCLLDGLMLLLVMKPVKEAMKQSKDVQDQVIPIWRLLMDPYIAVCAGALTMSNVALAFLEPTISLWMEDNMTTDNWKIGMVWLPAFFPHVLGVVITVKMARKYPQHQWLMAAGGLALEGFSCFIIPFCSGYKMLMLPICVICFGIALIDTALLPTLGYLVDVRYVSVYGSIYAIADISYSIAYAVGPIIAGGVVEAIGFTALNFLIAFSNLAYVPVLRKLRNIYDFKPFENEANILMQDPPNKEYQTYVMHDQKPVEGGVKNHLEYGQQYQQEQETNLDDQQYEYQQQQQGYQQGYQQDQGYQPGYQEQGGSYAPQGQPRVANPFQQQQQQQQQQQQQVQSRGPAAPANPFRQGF

D. melanogaster VAChT [2] = molecular target: T1, D. melanogaster VAChT; assay: inhibition of vesicular acetylcholine uptake, PNS from PC12 cells expressing VAChT; format: biochemical; settings: substrate acetylcholine
D. melanogaster VAChT [3] = molecular target: T1, D. melanogaster VAChT; assay: [3H]-SYN876 saturation binding to membranes of PC12 cells expressing VAChT

In the case of Nc1cccc2c1CC(N1CCC(c3ccccc3)CC1)C(O)C2 (stereo not shown) [aminobenzovesamicol], the IC50 (D. melanogaster VAChT [1]) is reported as “displaced by the known VAChT inhibitors vesamicol and aminobenzovesamicol (table S3)”.
With OC1CCCCC1N1CCC(c2ccccc2)CC1 (stereo not shown) [vesamicol] the IC50 (D. melanogaster VAChT [1]) was “displaced by the known VAChT inhibitors vesamicol and aminobenzovesamicol (table S3)”.
O=C(c1ccnc(Cl)c1)N1CC2(CCN(C/C=C/c3ccc(Cl)cc3)CC2)c2cc(F)ccc21 [SYN876] was tested, and the IC50 (D. melanogaster VAChT [2]) was “Inhibition of the acetylcholine transport activity of PNS from the cells” and the Kd (D. melanogaster VAChT [3]) was 0.04 nM.

From PMC3341389, “Spiroindolines Identify the Vesicular Acetylcholine Transporter as a Novel Target for Insecticide Action” (PLoS ONE, 2012)
